# Laboratory results published in US7265124B2, “Cristalline and amorphous form of a triazolo (4,5-D) pyridimine compound” (AstraZeneca AB, priority 2000, dated 2007).
# Key:
# Conditions in all cases: qualitative statement, no test described
# [1] = biological target: P2T (P2YADP or P2TAC) receptor (Homo sapiens, UniProt Q9H244); assay: P2T receptor antagonism (potency stated in words only)
# [2] = metabolic stability (stated in words only); format: in vitro ADME
# [3] = bioavailability (stated in words only); format: in vivo
# Sequence of P2T (P2YADP or P2TAC) receptor (Q9H244 whole entry): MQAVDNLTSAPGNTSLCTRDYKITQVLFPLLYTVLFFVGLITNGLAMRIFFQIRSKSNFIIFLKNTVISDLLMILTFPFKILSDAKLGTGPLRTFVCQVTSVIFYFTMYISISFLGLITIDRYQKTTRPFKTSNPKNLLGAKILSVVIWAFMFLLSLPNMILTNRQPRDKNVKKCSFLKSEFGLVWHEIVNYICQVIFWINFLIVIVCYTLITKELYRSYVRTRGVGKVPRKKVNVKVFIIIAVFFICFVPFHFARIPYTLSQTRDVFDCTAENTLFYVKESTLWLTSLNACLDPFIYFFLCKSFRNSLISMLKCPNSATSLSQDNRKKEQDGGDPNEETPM
structure (smiles),measurement,setting,value
"CCCSc1nc(N[C@@H]2C[C@H]2c2ccc(F)c(F)c2)c2nnn([C@@H]3C[C@H](OCCO)[C@@H](O)[C@H]3O)c2n1 (relative stereo) [compound of formula (I), {1S-[1α, 2α, 3β(1S*,2R*),5β]}-3-(7-{[2-3,4-difluorophenyl)cyclopropyl]amino}-5-(propylthio)-3H-1,2,3-triazolo[4,5-d]pyrimidin-3-yl)-5-(2-hydroxyethoxy)cyclopentane-1,2-diol]",potency as a P2T (P2YADP or P2TAC) antagonist,[1],high potency
same,metabolic stability,[2],surprisingly high
same,bioavailability,[3],surprisingly high
